# Assay results published in publication PMC12823391 (Nature, 2025).
# Assays:
# [1] = molecular target: endogenous NLRX1 (HeLa cell lysate) (Homo sapiens, UniProt Q86UT6); test: cellular thermal shift assay on lysate, immunoblot; assay type: biochemical; settings: 500 µM AcCoA, 44.6-65 °C, 3 min
# [2] = molecular target: T1, MBP–NLRX1 (87–975 amino acids) (Homo sapiens, UniProt Q86UT6); test: competition of AcCoA with biotin-AcCoA pull-down, immunoblot; assay type: binding; settings: unlabelled AcCoA as competitor
# [3] = molecular target: T1, MBP–NLRX1 (87–975 amino acids); test: biotin-CoASH pull-down and competition with CoASH, immunoblot; assay type: binding; settings: labelled compound; unlabelled CoASH as competitor
# [4] = molecular target: T1, MBP–NLRX1 (87–975 amino acids); test: biotin-acyl-CoA pull-down, immunoblot; assay type: binding; settings: labelled compound (biotin conjugate)
# T1 sequence (Q86UT6 87-975): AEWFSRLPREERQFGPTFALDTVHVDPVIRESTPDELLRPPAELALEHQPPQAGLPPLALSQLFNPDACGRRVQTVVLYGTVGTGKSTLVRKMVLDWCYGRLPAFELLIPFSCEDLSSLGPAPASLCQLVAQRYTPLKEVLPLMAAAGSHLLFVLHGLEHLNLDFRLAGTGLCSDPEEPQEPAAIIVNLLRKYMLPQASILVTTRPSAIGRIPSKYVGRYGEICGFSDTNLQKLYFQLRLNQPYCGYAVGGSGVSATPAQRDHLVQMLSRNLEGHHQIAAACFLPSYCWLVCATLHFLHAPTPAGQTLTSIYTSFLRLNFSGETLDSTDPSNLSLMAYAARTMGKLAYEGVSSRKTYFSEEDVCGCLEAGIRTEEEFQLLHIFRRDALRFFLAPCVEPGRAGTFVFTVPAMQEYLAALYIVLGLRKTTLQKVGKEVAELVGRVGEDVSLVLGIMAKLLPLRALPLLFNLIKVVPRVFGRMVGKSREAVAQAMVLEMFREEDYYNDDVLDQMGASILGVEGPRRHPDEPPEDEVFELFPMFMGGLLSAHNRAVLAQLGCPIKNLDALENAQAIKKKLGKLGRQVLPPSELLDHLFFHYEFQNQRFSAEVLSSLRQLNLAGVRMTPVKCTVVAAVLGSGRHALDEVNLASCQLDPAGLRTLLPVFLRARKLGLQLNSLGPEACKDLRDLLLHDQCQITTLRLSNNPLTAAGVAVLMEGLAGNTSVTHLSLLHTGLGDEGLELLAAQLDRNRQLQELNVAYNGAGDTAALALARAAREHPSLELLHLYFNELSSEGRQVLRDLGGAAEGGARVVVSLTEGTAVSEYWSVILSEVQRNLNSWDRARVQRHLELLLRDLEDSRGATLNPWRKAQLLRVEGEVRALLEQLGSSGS
# Sequence of endogenous NLRX1 (HeLa cell lysate) (Q86UT6 87-975): as above
compound,measurement,setting,value
CC(=O)SCCNC(=O)CCNC(=O)[C@H](O)C(C)(C)COP(=O)(O)OP(=O)(O)OC[C@H]1O[C@@H](n2cnc3c(N)ncnc32)[C@H](O)[C@@H]1OP(=O)(O)O [AcCoA],thermal shift,[1],AcCoA addition substantially increased the stability of NLRX1 protein level compared with CoASH
same,"competition of AcCoA with biotin-AcCoA pull-down, immunoblot",[2],increasing concentrations of AcCoA competed with biotin–AcCoA for NLRX1 binding
CC(C)(COP(=O)(O)OP(=O)(O)OC[C@H]1O[C@@H](n2cnc3c(N)ncnc32)[C@H](O)[C@@H]1OP(=O)(O)O)[C@@H](O)C(=O)NCCC(=O)NCCS [CoASH],"biotin-CoASH pull-down and competition with CoASH, immunoblot",[3],CoASH was associated with recombinant NLRX1 to a lesser extent than AcCoA was
CC(C)(COP(=O)(O)OP(=O)(O)OC[C@H]1O[C@@H](n2cnc3c(N)ncnc32)[C@H](O)[C@@H]1OP(=O)(O)O)[C@@H](O)C(=O)NCCC(=O)NCCSC(=O)CC(=O)O [malonyl-CoA],"biotin-acyl-CoA pull-down, immunoblot",[4],no interaction between recombinant NLRX1 and malonyl-CoA or succinyl-CoA was detected
CC(C)(COP(=O)(O)OP(=O)(O)OC[C@H]1O[C@@H](n2cnc3c(N)ncnc32)[C@H](O)[C@@H]1OP(=O)(O)O)[C@@H](O)C(=O)NCCC(=O)NCCSC(=O)CCC(=O)O [succinyl-CoA],"biotin-acyl-CoA pull-down, immunoblot",[4],no interaction between recombinant NLRX1 and malonyl-CoA or succinyl-CoA was detected
